Assay results taken from PMC8968952, “Modulation of ERCC1-XPF Heterodimerization Inhibition via Structural Modification of Small Molecule Inhibitor Side-Chains” (Frontiers in Oncology, 2022).
pIC50: −log10 of the molar value.

Legend:
[1] = system: ERCC1 or XPF levels in A549 cells; experiment: Western blot of ERCC1 and XPF protein levels (PLA control); format: cell-based, human; details: 2 µM, 24 h
Experimental: page 1: Supplementary Material […] Supplementary Figure 1. ERCC1-XPF mediated cleavage of the stem-loop DNA substrate, in which the FAM signal is quenched, releases the fluorescently tagged octanucleotide. Triplicate measurements of the control (DMSO) and the effect of 10 μM of compounds 4 and 6 on the incision activity is shown. 2 PLA Control Experiments Supplementary Figure 2. A549 cells were seeded in 6-well culture dishes (Thermo Fishes Scientific) at a density of 0.3 X 10^6 cells/well in a final volume of 3 ml. […] The chambers were incubated for 24 h and then washed with PBS and the cells were solubilized with RIPA buffer in the presence of protease inhibitor cocktail (Cell Signaling Technology) plus 2 mM EDTA. […] EpiGentek), XPF (LS- C173159, 1:1000; LifeSpan BioSciences, Seattle, WA) and B-Actin (sc-47778, 1:1000; Santa Cruz) primary antibodies followed by secondary anti-mouse or anti-rabbit secondary HRP-conjugated secondary antibodies. ECL chemiluminescent substrate (Promega) was used to detect the proteins. 3 Cytotoxicity Analysis Supplementary Figure 3. Cytotoxicity assay using colony forming assay 4 HCT-116 Derived XPF Knockout Cells For CRISPR deletion of XPF from HCT-116 cells, the pSpCas9(BB)-2A-GFP (pX458) vector (Addgene plasmid # 48138) was used. The short guide sequence to target XPF exon one was: 5'- [NT] 3' and target XPF exon eight was: 5'- [NT]3'. […]

HCT-116 cells [2] = system: HCT-116 cells; parameters: method as in PMID 31369707; details: 2 μM, after 24 hours; cited from earlier work
[3] = target: T1, ERCC1-XPF heterodimer in A549 cells (Homo sapiens, UniProt Q92889); parameters: method as in PMID 33399940; details: A549 cells treated with 20 μM cisplatin and 1 μM inhibitor; cited from earlier work
T1 construct: endogenous in cells; host or cells: A549
T1 sequence (Q92889 1-916): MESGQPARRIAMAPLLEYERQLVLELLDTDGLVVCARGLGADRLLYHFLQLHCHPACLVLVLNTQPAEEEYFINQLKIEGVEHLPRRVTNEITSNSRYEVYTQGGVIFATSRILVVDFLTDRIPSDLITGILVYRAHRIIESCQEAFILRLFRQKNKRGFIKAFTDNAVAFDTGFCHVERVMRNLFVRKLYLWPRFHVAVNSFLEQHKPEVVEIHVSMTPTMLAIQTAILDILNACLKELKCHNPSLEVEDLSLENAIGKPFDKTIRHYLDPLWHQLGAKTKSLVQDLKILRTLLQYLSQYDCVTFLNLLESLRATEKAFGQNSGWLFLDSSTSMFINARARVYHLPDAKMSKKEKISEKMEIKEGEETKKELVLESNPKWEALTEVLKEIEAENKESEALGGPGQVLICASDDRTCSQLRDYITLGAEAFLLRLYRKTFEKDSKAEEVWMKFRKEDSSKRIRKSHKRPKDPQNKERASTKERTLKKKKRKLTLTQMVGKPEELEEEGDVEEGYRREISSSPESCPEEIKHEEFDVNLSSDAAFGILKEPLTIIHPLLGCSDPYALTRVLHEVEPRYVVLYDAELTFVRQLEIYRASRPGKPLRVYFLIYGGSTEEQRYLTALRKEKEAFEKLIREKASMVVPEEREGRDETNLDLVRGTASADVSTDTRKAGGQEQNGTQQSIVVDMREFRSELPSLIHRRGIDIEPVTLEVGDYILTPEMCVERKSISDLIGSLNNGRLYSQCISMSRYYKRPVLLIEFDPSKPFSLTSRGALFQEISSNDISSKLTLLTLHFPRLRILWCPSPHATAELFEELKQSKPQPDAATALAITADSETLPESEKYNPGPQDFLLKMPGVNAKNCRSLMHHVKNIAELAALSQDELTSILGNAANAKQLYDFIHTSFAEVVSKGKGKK

HCT-116 cells [4] = system: HCT-116 cells; parameters: method as in PMID 31369707; details: 1.0 μM compound, 4 J/m^2 UVC; cited from earlier work
HCT-116 cells [5] = system: HCT-116 cells; parameters: method as in PMID 31369707; details: 1 μM compound, 50 μM cyclophosphamide; cited from earlier work
[6] = parameters: method as in PMID 31369707; details: cited from earlier work
[7] = parameters: method as in PMID 31369707; details: cited from earlier work; remark: listed apart in the source
CYP2C9 = CYP2C9 (Homo sapiens, UniProt P11712); parameters: method as in PMID 31369707; details: read-out: Inhibition of cytochrome P450 (IC50) CYP2C9; cited from earlier work
CYP2C19 = CYP2C19 (Homo sapiens, UniProt P33261); parameters: method as in PMID 31369707; details: read-out: Inhibition of cytochrome P450 (IC50) CYP2C19; cited from earlier work
CYP2D6 = CYP2D6 (Homo sapiens, UniProt P10635); parameters: method as in PMID 31369707; details: read-out: Inhibition of cytochrome P450 (IC50) CYP2D6; cited from earlier work
CYP3A4-M = CYP3A4-M (Homo sapiens, UniProt P08684); parameters: method as in PMID 31369707; details: read-out: Inhibition of cytochrome P450 (IC50) CYP3A4-M; cited from earlier work
Sequence of CYP3A4-M (P08684 whole entry): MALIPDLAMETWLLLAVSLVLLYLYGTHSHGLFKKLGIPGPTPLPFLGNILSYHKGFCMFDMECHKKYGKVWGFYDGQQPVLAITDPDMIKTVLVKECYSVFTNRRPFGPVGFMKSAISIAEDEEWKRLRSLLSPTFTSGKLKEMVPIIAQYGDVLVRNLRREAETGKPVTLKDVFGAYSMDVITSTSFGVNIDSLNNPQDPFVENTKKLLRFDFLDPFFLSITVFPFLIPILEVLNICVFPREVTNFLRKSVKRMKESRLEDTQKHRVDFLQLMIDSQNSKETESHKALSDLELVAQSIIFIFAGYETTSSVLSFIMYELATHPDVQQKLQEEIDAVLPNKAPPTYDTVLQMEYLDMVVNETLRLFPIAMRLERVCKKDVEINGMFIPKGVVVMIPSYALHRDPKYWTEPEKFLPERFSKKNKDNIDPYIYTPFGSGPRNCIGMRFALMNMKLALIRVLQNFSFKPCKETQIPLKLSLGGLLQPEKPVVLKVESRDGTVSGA

Sequence of CYP2C9 (P11712 whole entry): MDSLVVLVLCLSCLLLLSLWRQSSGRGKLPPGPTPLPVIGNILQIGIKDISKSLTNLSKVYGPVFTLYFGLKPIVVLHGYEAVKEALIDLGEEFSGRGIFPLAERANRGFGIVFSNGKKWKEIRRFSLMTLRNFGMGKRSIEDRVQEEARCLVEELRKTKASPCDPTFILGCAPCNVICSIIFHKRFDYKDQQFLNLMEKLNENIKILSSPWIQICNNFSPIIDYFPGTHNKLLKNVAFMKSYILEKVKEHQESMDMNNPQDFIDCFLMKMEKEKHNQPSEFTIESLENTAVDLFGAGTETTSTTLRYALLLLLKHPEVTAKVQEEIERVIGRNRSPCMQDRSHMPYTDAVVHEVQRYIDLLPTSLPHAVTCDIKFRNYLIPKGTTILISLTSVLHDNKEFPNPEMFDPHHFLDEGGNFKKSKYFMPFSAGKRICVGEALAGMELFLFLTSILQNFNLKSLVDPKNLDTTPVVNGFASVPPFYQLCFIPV
Sequence of CYP2D6 (P10635 whole entry): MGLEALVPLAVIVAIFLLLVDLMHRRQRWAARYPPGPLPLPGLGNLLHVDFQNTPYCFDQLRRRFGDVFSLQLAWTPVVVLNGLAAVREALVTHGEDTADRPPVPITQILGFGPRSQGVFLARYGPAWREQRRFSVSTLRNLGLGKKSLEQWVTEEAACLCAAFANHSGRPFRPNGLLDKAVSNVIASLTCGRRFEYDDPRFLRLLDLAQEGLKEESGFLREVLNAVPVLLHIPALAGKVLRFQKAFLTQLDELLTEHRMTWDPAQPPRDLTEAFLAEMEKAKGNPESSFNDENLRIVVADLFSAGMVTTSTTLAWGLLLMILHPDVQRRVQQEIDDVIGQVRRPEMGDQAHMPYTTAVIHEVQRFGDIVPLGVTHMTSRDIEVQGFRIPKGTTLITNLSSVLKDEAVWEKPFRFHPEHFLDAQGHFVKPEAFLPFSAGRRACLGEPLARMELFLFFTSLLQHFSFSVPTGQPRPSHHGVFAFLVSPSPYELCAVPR
Sequence of CYP2C19 (P33261 whole entry): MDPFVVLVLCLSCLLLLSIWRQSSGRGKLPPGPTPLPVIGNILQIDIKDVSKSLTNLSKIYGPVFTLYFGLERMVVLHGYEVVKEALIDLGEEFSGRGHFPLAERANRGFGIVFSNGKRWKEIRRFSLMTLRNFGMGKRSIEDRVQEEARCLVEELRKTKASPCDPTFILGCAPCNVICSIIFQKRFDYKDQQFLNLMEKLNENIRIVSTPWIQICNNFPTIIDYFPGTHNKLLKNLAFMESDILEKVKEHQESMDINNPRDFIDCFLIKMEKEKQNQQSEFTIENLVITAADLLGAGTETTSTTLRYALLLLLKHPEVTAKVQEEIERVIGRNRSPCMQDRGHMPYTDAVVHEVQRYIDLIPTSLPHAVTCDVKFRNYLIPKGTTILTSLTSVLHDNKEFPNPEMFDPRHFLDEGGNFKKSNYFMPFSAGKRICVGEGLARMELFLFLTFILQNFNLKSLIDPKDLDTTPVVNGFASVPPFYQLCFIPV

## COc1ccc2nc3cc(Cl)ccc3c(Nc3ccc(O)c(CN4CCN(CCN(C)C)CC4)c3)c2c1 [Compound 4]
[1]
  levels of ERCC1 or XPF vs untreated cells: no significant differences
HCT-116 cells [2]
  CPD removal: 60%
[3]
  PLA: inhibition of the interaction between ERCC1 and XPF (in words): clear inhibition of the interaction between ERCC1 and XPF
HCT-116 cells [4]
  cell survival after UVC: ~ 50%
HCT-116 cells [5]
  cell survival with cyclophosphamide: about 75%
[6]
  Metabolic stability in human liver microsomes (clearance): 44.0 (mL/min/kg)
[7]
  Metabolic stability in cryopreserved human hepatocytes (clearance): 48.8 mL/min/kg
  Metabolic stability in cryopreserved human hepatocytes T1/2: 1.32 h
CYP2C9
  pIC50: < 4.30
CYP2C19
  pIC50: < 4.30
CYP2D6
  pIC50: 4.80
CYP3A4-M
  pIC50: 4.43
